Values quoted from earlier work, collected in paper PMC3404106, “Pharmacology of DB844, an Orally Active aza Analogue of Pafuramidine, in a Monkey Model of Second Stage Human African Trypanosomiasis” (PLoS Neglected Tropical Diseases, 2012).

Test system: 1st stage experimental murine HAT infections
Set-up: method as in PMID 19620327
Details: DB844 at 25 mg/kg; cited from earlier work

SMILES: CONC(=N)c1ccc(-c2ccc(-c3ccc(C(=N)NOC)cn3)o2)cc1 [DB844, N-methoxy-6-{5-[4-(N-methoxyamidino)phenyl]-furan-2-yl}-nicotinamidine]
- cure of 1st stage experimental murine HAT infection: curative
